Experimental data: patent US20260274892A1, “MACROCYCLIC BROAD SPECTRUM ANTIBIOTICS” (RQx Pharmaceuticals, Inc., priority 2017, published 2026)

Tests used:
[1] = test system: Methicillin Resistant Staphylococcus aureus strain USA 200; assay: Minimum inhibitory concentration (MIC), CLSI broth micro-dilution, S. aureus; format: cell-based; details: Staphylococcus aureus, MRSA / USA200; Table 6; MRSA USA 200; cation adjusted Mueller Hinton Broth + 0.002% Tween-80; 35° C., 22 hours
Method in brief: (§1)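 Antibacterial potency is measured as MIC by the CLSI broth dilution method. Bacteria at OD600 0.0005 in Tween-80-supplemented cation-adjusted Mueller Hinton broth face ten twofold compound dilutions for 22 h at 35° C.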

[2] = test system: Escherichia coli ATCC 25922; assay: Minimum inhibitory concentration (MIC), CLSI broth micro-dilution, E. coli; format: cell-based; details: Escherichia coli, ATCC25922, 22 h, Table 6, cation adjusted Mueller Hinton Broth + 0.002% Tween-80, 35° C.
Method in brief: as §1

MIC [1] [µM]	MIC [2] [µM]	Compound
0.016	0.13	Cc1nc(-c2ccc(C(C)(C)C)cc2)c(Cl)cc1C(=O)N[C@@H](CCN)C(=O)N(C)[C@@H]1C(=O)N[C@@H](C)C(=O)N[C@H](C(=O)NCC#N)Cc2ccc(OCCN)c(c2)-c2cc1ccc2OCCN (racemic) [Compound 407, rac-(8S,11S,14S)-3,18-bis(2-aminoethoxy)-N-(cyanomethyl)-11-methyl-14-[methyl-[rac-(2S)-4-amino-2-[[6-(4-tert-butylphenyl)-5-chloro-2-methyl-pyridine-3-carbonyl]amino]butanoyl]amino]-10,13-dioxo-9,12-diazatricyclo[13.3.1.12,6]icosa-1(18),2(20),3,5,15(19),16-hexaene-8-carboxamide]
0.023	0.38	Cc1nc(-c2ccc(C(C)(C)C)cc2)c(N(C)C)cc1C(=O)N[C@@H](CCN)C(=O)N(C)[C@@H]1C(=O)N[C@@H](C)C(=O)N[C@H](C(=O)NCC#N)Cc2ccc(OCCN)c(c2)-c2cc1ccc2OCCN (racemic) [Compound 408, rac-(8S,11S,14S)-3,18-bis(2-aminoethoxy)-N-(cyanomethyl)-11-methyl-14-[methyl-[rac-(2S)-4-amino-2-[[6-(4-tert-butylphenyl)-5-(dimethylamino)-2-methyl-pyridine-3-carbonyl]amino]butanoyl]amino]-10,13-dioxo-9,12-diazatricyclo[13.3.1.12,6]icosa-1(18),2(20),3,5,15(19),16-hexaene-8-carboxamide]
0.13	0.75	CNc1cc(C(=O)N[C@@H](CCN)C(=O)N(C)[C@@H]2C(=O)N[C@@H](C)C(=O)N[C@H](C(=O)NCC#N)Cc3ccc(OCCN)c(c3)-c3cc2ccc3OCCN)c(C)nc1-c1ccc(C(C)(C)C)cc1 (racemic) [Compound 409, rac-(8S,11S,14S)-3,18-bis(2-aminoethoxy)-N-(cyanomethyl)-11-methyl-14-[methyl-[rac-(2S)-4-amino-2-[[6-(4-tert-butylphenyl)-2-methyl-5-(methylamino)pyridine-3-carbonyl]amino]butanoyl]amino]-10,13-dioxo-9,12-diazatricyclo[13.3.1.12,6]icosa-1(18),2(20),3,5,15(19),16-hexaene-8-carboxamide]
0.016	0.25	C[C@@H]1NC(=O)[C@@H](N(C)C(=O)[C@H](CCN)NC(=O)c2cnc(-c3ccc(C(C)(C)C)cc3)cc2N)c2ccc(OCCN)c(c2)-c2cc(ccc2OCCN)C[C@@H](C(=O)NCC#N)NC1=O (racemic) [Compound 411, rac-(8S,11S,14S)-3,18-bis(2-aminoethoxy)-N-(cyanomethyl)-11-methyl-14-[methyl-[rac-(2S)-4-amino-2-[[4-amino-6-(4-tert-butylphenyl)pyridine-3-carbonyl]amino]butanoyl]amino]-10,13-dioxo-9,12-diazatricyclo[13.3.1.12,6]icosa-1(18),2(20),3,5,15(19),16-hexaene-8-carboxamide]
0.023	0.5	C[C@@H]1NC(=O)[C@@H](N(C)C(=O)[C@H](CCN)NC(=O)c2ccc(-c3ccc(C(C)(C)C)cc3)nc2N)c2ccc(OCCN)c(c2)-c2cc(ccc2OCCN)C[C@@H](C(=O)NCC#N)NC1=O (racemic) [Compound 412, rac-(8S,11S,14S)-3,18-bis(2-aminoethoxy)-N-(cyanomethyl)-11-methyl-14-[methyl-[rac-(2S)-4-amino-2-[[2-amino-6-(4-tert-butylphenyl)pyridine-3-carbonyl]amino]butanoyl]amino]-10,13-dioxo-9,12-diazatricyclo[13.3.1.12,6]icosa-1(18),2(20),3,5,15(19),16-hexaene-8-carboxamide]
0.016	0.13	Cc1nc(-c2ccc(C(C)(C)C)cc2)cc(N)c1C(=O)N[C@@H](CCN)C(=O)N(C)[C@@H]1C(=O)N[C@@H](C)C(=O)N[C@H](C(=O)NCC#N)Cc2ccc(OCCN)c(c2)-c2cc1ccc2OCCN (racemic) [Compound 413, rac-(8S,11S,14S)-3,18-bis(2-aminoethoxy)-N-(cyanomethyl)-11-methyl-14-[methyl-[rac-(2S)-4-amino-2-[[4-amino-6-(4-tert-butylphenyl)-2-methyl-pyridine-3-carbonyl]amino]butanoyl]amino]-10,13-dioxo-9,12-diazatricyclo[13.3.1.12,6]icosa-1(18),2(20),3,5,15(19),16-hexaene-8-carboxamide]
0.016	0.25	Cc1cc(-c2ccc(C(C)(C)C)cc2)nc(N)c1C(=O)N[C@@H](CCN)C(=O)N(C)[C@@H]1C(=O)N[C@@H](C)C(=O)N[C@H](C(=O)NCC#N)Cc2ccc(OCCN)c(c2)-c2cc1ccc2OCCN (racemic) [Compound 414, rac-(8S,11S,14S)-3,18-bis(2-aminoethoxy)-N-(cyanomethyl)-11-methyl-14-[methyl-[rac-(2S)-4-amino-2-[[2-amino-6-(4-tert-butylphenyl)-4-methyl-pyridine-3-carbonyl]amino]butanoyl]amino]-10,13-dioxo-9,12-diazatricyclo[13.3.1.12,6]icosa-1(18),2(20),3,5,15(19),16-hexaene-8-carboxamide]
0.094	3	C[C@@H]1NC(=O)[C@@H](N(C)C(=O)[C@H](CCN)NC(=O)c2cc(N)c(-c3ccc(C(C)(C)C)cc3)nc2N)c2ccc(OCCN)c(c2)-c2cc(ccc2OCCN)C[C@@H](C(=O)NCC#N)NC1=O (racemic) [Compound 416, rac-(8S,11S,14S)-3,18-bis(2-aminoethoxy)-N-(cyanomethyl)-11-methyl-14-[methyl-[rac-(2S)-4-amino-2-[[2,5-diamino-6-(4-tert-butylphenyl)pyridine-3-carbonyl]amino]butanoyl]amino]-10,13-dioxo-9,12-diazatricyclo[13.3.1.12,6]icosa-1(18),2(20),3,5,15(19),16-hexaene-8-carboxamide]
0.0062	0.13	CCc1nc(-c2ccc(CC(C)C)cc2)ncc1C(=O)N[C@@H](CCN)C(=O)N(C)[C@@H]1C(=O)N[C@@H](C)C(=O)N[C@H](C(=O)NCC#N)Cc2ccc(OCCN)c(c2)-c2cc1ccc2OCCN (racemic) [Compound 417, rac-(8S,11S,14S)-3,18-bis(2-aminoethoxy)-N-(cyanomethyl)-11-methyl-14-[methyl-[rac-(2S)-4-amino-2-[[4-ethyl-2-(4-isobutylphenyl)pyrimidine-5-carbonyl]amino]butanoyl]amino]-10,13-dioxo-9,12-diazatricyclo[13.3.1.12,6]icosa-1(18),2(20),3,5,15(19),16-hexaene-8-carboxamide]
0.063	8	C[C@@H]1NC(=O)[C@@H](N(C)C(=O)[C@H](CCN)NC(=O)c2cnc(-c3ccc(C(C)(C)C)cc3)nc2O)c2ccc(OCCN)c(c2)-c2cc(ccc2OCCN)C[C@@H](C(=O)NCC#N)NC1=O (racemic) [Compound 419, rac-(8S,11S,14S)-3,18-bis(2-aminoethoxy)-N-(cyanomethyl)-11-methyl-14-[methyl-[rac-(2S)-4-amino-2-[[2-(4-tert-butylphenyl)-4-hydroxy-pyrimidine-5-carbonyl]amino]butanoyl]amino]-10,13-dioxo-9,12-diazatricyclo[13.3.1.12,6]icosa-1(18),2(20),3,5,15(19),16-hexaene-8-carboxamide]
0.031	0.19	Cc1nc(-c2ccc(C(C)(C)C)cc2)nc(Cl)c1C(=O)N[C@@H](CCN)C(=O)N(C)[C@@H]1C(=O)N[C@@H](C)C(=O)N[C@H](C(=O)NCC#N)Cc2ccc(OCCN)c(c2)-c2cc1ccc2OCCN (racemic) [Compound 421, rac-(8S,11S,14S)-3,18-bis(2-aminoethoxy)-N-(cyanomethyl)-11-methyl-14-[methyl-[rac-(2S)-4-amino-2-[[2-(4-tert-butylphenyl)-4-chloro-6-methyl-pyrimidine-5-carbonyl]amino]butanoyl]amino]-10,13-dioxo-9,12-diazatricyclo[13.3.1.12,6]icosa-1(18),2(20),3,5,15(19),16-hexaene-8-carboxamide]
0.031	0.38	COc1nc(-c2ccc(C(C)(C)C)cc2)nc(C)c1C(=O)N[C@@H](CCN)C(=O)N(C)[C@@H]1C(=O)N[C@@H](C)C(=O)N[C@H](C(=O)NCC#N)Cc2ccc(OCCN)c(c2)-c2cc1ccc2OCCN (racemic) [Compound 422, rac-(8S,11S,14S)-3,18-bis(2-aminoethoxy)-N-(cyanomethyl)-11-methyl-14-[methyl-[rac-(2S)-4-amino-2-[[2-(4-tert-butylphenyl)-4-methoxy-6-methyl-pyrimidine-5-carbonyl]amino]butanoyl]amino]-10,13-dioxo-9,12-diazatricyclo[13.3.1.12,6]icosa-1(18),2(20),3,5,15(19),16-hexaene-8-carboxamide]
0.13	2	Cc1nc(-c2ccc(C(C)(C)C)cc2)nc(O)c1C(=O)N[C@@H](CCN)C(=O)N(C)[C@@H]1C(=O)N[C@@H](C)C(=O)N[C@H](C(=O)NCC#N)Cc2ccc(OCCN)c(c2)-c2cc1ccc2OCCN (racemic) [Compound 423, rac-(8S,11S,14S)-3,18-bis(2-aminoethoxy)-N-(cyanomethyl)-11-methyl-14-[methyl-[rac-(2S)-4-amino-2-[[2-(4-tert-butylphenyl)-4-hydroxy-6-methyl-pyrimidine-5-carbonyl]amino]butanoyl]amino]-10,13-dioxo-9,12-diazatricyclo[13.3.1.12,6]icosa-1(18),2(20),3,5,15(19),16-hexaene-8-carboxamide]
